The text below walks through data of ChEMBL document CHEMBL3988442, “University of Dundee, Small-Polar-MMV Screening Library” (2021).

pIC50: −log10 of the molar value.

For this assay, the target named is ClpP1P2 (Mycobacterium tuberculosis (strain ATCC 25618 / H37Rv), UniProt P9WPC3+P9WPC5). In words: in vitro assay to detect presence of AMC directly proportional to the activity of ClpP1P2. GHDDI collaboration. It counts as functional.
As for `Cn1cc(CCC(=O)N2CCCN(c3ncccc3C#N)CC2)cn1`, the pIC50 (usually the negative decadic logarithm of the IC50, by convention in mol/L) is less than 4.00. With `COc1ncc(NCc2ccc(F)cc2)cc1C(N)=O` the figure was less than 4.00. With `CN(C)c1cc(C(=O)N2CCN(c3cc(C#N)ccn3)CC2)ccn1` the figure was less than 4.00; with `COc1cccc(OCCNS(=O)(=O)Cc2ccccc2)c1`, less than 4.00. With `Cc1ccc(S(=O)(=O)N2CCOc3ccccc32)cc1C(N)=O` the figure was less than 4.00. As for `Cc1cccc2c1NC1(CCOCC1)NC2=O`, the pIC50 is less than 4.00. The value for `CCc1nnc(CNC2CCCN(Cc3noc(C4CC4)n3)C2)o1` (configuration not stated) was less than 4.00; that for `CCN(CC(C)C#N)C(=O)CNc1cc(Cl)ccc1C(N)=O` (configuration not stated) was less than 4.00; that for `O=C(Nc1cc(CCC2CCN(CCO)CC2)ccn1)c1ccccn1` was less than 4.00. In the case of `CCCn1cc(-c2cc(-c3cc(CC)n[nH]3)c(C#N)c(N)n2)c(C)n1`, the pIC50 was less than 4.00. With `c1cc(CN2CCC(c3ccnc4nccn34)C2)ccn1` (configuration not stated) the figure was less than 4.00.

Turning to `Cc1nccn1CCCNc1nccnc1C#N`, the pIC50 is less than 4.00. With `CCN(C(=O)CNc1cc(C)c(F)cc1C(N)=O)C1CC1` the figure was less than 4.00. On to `CN(Cc1ccsc1)C(=O)Nc1ccc(N(C)C)nc1`, for which the negative logarithm of the IC50 (pIC50) is less than 4.00. With `Cc1ccc(C#N)c(N2CCC3(CCCN(C4CCOCC4)C3=O)C2)n1` (configuration not stated) the figure was less than 4.00. For the compound `Fc1cccc(CNc2cncc(-n3cccn3)n2)c1`, the pIC50 was less than 4.00. Take `Cc1ccc(S(=O)(=O)N2CCCC3(CCCN3S(C)(=O)=O)C2)cc1F` (configuration not stated): the pIC50 was less than 4.00. With `NC(=O)C1CCN(c2nc3nccc(-c4ccncc4)c3c(=O)[nH]2)CC1` the figure was less than 4.00. With `COc1ccc(C2Nc3cc(Cl)ccc3C3=NCCN32)cc1CO` (configuration not stated) the figure was less than 4.00; with `COc1ccc2c(c1)Cc1c-2nc(N)c(C#N)c1C1CCOC1` (configuration not stated), less than 4.00; with `CC(C)c1nn(C)c(N(C)C)c1CNCC(O)c1cccc(F)c1` (configuration not stated), less than 4.00.

As for `Cc1nc(CN2CCC(O)(c3ccccc3F)CC2)c2ccccn12`, the pIC50 is less than 4.00.

In the case of `O=C(c1c2c(N3CCOCC3)ncnc2n2ccccc12)N1CCCC1`, the pIC50 is less than 4.00.

Take `CNc1cncc(C2CCCN2C(=O)CCn2ccnc2)n1` (configuration not stated): the pIC50 was less than 4.00. Regarding `N#Cc1ccc(F)c(CN2CCNC(=O)C2c2cccs2)c1` (configuration not stated), the pIC50 was less than 4.00.

Regarding `O=C(NCc1nc2cc(F)ccc2[nH]1)c1ccc[nH]1`, the pIC50 was less than 4.00.

Take `CN(C)c1cc(C(F)(F)F)cc(-c2ccc(C(=O)O)cc2)n1`: the pIC50 is less than 4.00.

`CS(=O)(=O)NC1CCCN(C(=O)c2cccnc2)C1` (configuration not stated): the pIC50 is less than 4.00. The value for `CN1CCc2c(C#N)c(NCc3ccncc3)n3cnnc3c2C1` was less than 4.00; that for `Cc1cccc2c1NC1(CCCC1)NC2=O` was less than 4.00.

For `COCCn1cnc(-c2cc(C(=O)NC(C)C)c3ccccn23)c1`, the pIC50 was less than 4.00. With `Cc1nc(-c2nc(C(=O)N3CCOCC3)c3ccccn23)cn1C(C)C` the figure was less than 4.00; with `c1ncc2c(n1)CN(Cc1nc(-c3ccoc3)no1)CC2`, less than 4.00. The value for `COc1ccc(C(=O)N(C)Cc2nnc3ccccn23)c(OC)c1OC` was less than 4.00. In the case of `COc1cc(CN2CCCCCC2c2cccs2)cc(OC)c1O` (configuration not stated), the pIC50 was 4.77. In the case of `COc1cc(OC)c2nc(NCCN3CCNC3=O)cc(C)c2c1`, the pIC50 is less than 4.00. With `O[C@@H]1C[C@H]2CN(Cc3ccccc3)[C@H](Cc3ccccc3)CN2C1` the figure was less than 4.00; with `Cc1nc(N2CCCC2C(=O)NC(C)(C)CO)nc2ccccc12` (configuration not stated), less than 4.00. The value for `O=C1CN(Cc2ccc3ccccc3n2)CCN1C1CCCC1` was less than 4.00; that for `Cc1nc(CN(C)C2CCN(Cc3ccc4c(c3)CCC4)C2)no1` (configuration not stated) was less than 4.00; that for `O=C(NCCC(=O)N1CCCc2ccccc21)c1ccc(F)cc1F` was less than 4.00.

In the case of `CCn1ccnc1CN1CCN(CC(O)c2cccc(F)c2)CC1` (configuration not stated), the pIC50 is less than 4.00. Turning to `CS(=O)(=O)N1CC[C@]2(O)CCN(c3cc(C#N)ccn3)C[C@@H]2C1`, the pIC50 was less than 4.00. With `CN(C)c1cncc(-c2ccnc3c2ccn3C)n1`, the pIC50 is less than 4.00. With `Cc1ccc(C2(O)CCN(C(=O)CCn3ccc(=O)[nH]c3=O)CC2)nc1` the figure was less than 4.00. With `Cn1ccc2c(-c3cc(N4CCOCC4)ncn3)ccnc21` the figure was less than 4.00. With `N#Cc1c(C2CCOC2)cc(-c2ccc(N3CCCCC3)cc2)nc1N` (configuration not stated), the pIC50 is less than 4.00. The value for `CC(C(=O)N1CCCN(c2ccccc2C#N)CC1)n1cccn1` (configuration not stated) was less than 4.00. With `CSc1nccn1-c1ccc(C(=O)NCC2CC2)cc1` the figure was less than 4.00. Consider `NC(=O)C1CCN(c2nc3nccc(-c4cccnc4)c3c(=O)[nH]2)CC1`, for which the pIC50 was less than 4.00.

As for `CC(=O)N1CCc2[nH]cnc2C1C1=CCCN(CCn2cccc2)C1` (configuration not stated), the pIC50 was less than 4.00. As to `CC(Cn1cccn1)Nc1cnc2ccccc2n1` (configuration not stated), the pIC50 was less than 4.00. In the case of `Cc1cnn(CC2CCCN2C(=O)c2nccnc2N)c1` (configuration not stated), the pIC50 is less than 4.00.

`CCn1nc2c(cc1=O)CN(Cc1nc(C)c(C)o1)CC2`: the negative logarithm of the IC50 (pIC50) was less than 4.00.

Consider `CCOC1CCN(C(=O)NCCc2ccn(-c3ccccc3)n2)CC1`, for which the pIC50 is less than 4.00. Consider `CN(C)S(=O)(=O)N1CC[C@]2(O)CCN(c3cc(C#N)ccn3)C[C@@H]2C1`, for which the pIC50 is less than 4.00. With `COc1cc2c(cc1-c1nc3c(cnn3C(C)C)[nH]1)OCO2` the figure was less than 4.00; with `CC(Cc1ccco1)NC(=O)Nc1ccc(N2CCCC2)nc1` (configuration not stated), less than 4.00; with `CCOC(=O)C1(Cc2cccc(OC)c2)CCN(Cc2ncc[nH]2)CC1`, less than 4.00.

As to `CCC[C@H]1CN(c2cncc(C(=O)N3CCCCC3)n2)C[C@@H]1N(C)C`, the pIC50 was less than 4.00. As for `Oc1ccc(C2Nc3ccccc3C3=NCCCN32)cc1` (configuration not stated), the pIC50 is less than 4.00. Turning to `COCCNC(=O)c1nc(-c2cn(C)cn2)n2ccccc12`, the pIC50 was less than 4.00. Consider `Cc1n[nH]c(=O)c2c(NC(=O)CN3CCOC(C)C3)oc(C)c12` (configuration not stated), for which the pIC50 is less than 4.00. Consider `Cc1cc(C)n(CC2CCCN2CCCS(N)(=O)=O)n1` (configuration not stated), for which the pIC50 is less than 4.00. With `Cn1ccc(-c2cc(C(=O)N3CCC(C(N)=O)CC3)c3ccccn23)n1` the figure was less than 4.00; with `Cc1nn(C)c(C)c1-c1cc(-c2cc(CC(=O)O)cs2)nc(N)c1C#N`, less than 4.00. With `Cc1ccnc(NCCCN2CCc3ccccc32)n1` the figure was less than 4.00. The value for `Cc1cnc(CCNc2cccc(CC3CCCNC3)n2)s1` (configuration not stated) was less than 4.00. As for `COCCNC(=O)c1cc(-c2cc[nH]n2)n2ccccc12`, the pIC50 was less than 4.00. Consider `CCOc1ccc(Cl)c(C(=O)N(C)C)n1`, for which the pIC50 was less than 4.00. Take `Cc1ccc2cc(CN(C)Cc3ccccn3)c(=O)[nH]c2c1`: the pIC50 is less than 4.00.

As to `CNc1cc(C(=O)NCCC2=CSC3=NCCCN23)ccn1`, the pIC50 was less than 4.00.

Take `Cn1cc(-c2nc(CNCCn3cccn3)cs2)cn1`: the pIC50 is less than 4.00. Regarding `Cn1c(CS(=O)(=O)c2ccc(Cl)cc2)cc(=O)n(C)c1=O`, the pIC50 is less than 4.00. On to `Cc1nc(CN2CCN(C(=O)c3sccc3C)CC2)cs1`, for which the pIC50 is less than 4.00. The value for `CN(CC(=O)N1CCC(COc2ccccc2)CC1)c1cnccn1` was less than 4.00; that for `Cc1cc(NCC(=O)N(C)C)c(C(N)=O)cc1F` was less than 4.00; that for `CC1CN(C(=O)CN(Cc2ccccc2)C2CC2)CCO1` (configuration not stated) was less than 4.00. Take `O=C(c1cnn2c(-c3ccco3)ccnc12)N1CCCCCC1`: the pIC50 is less than 4.00.

Regarding `COc1ncc(NCc2cc(C#N)cs2)cc1C(N)=O`, the pIC50 was less than 4.00. With `CCCNCc1ccc(-c2cc(N)nc3[nH]ccc23)cc1` the figure was less than 4.00; with `CC(C)=CCCC1(C)C=Cc2c(cc(C)n(CCC(=O)O)c2=O)O1` (configuration not stated), less than 4.00. On to `Cc1nc(N2C[C@H]3CC[C@@H](C2)N3)nc2cc(S(C)(=O)=O)ccc12`, for which the pIC50 was less than 4.00. Take `Cc1n[nH]c(C)c1-c1cc(-c2ccc[nH]2)nc(N)c1C#N`: the pIC50 is less than 4.00. The value for `N#Cc1cccc(OCCN2CCNC(=O)C2c2cccs2)c1` (configuration not stated) was less than 4.00; that for `COC(=O)N1CCC(Nc2ccc(Cl)c(C#N)n2)CC1` was less than 4.00. With `Cc1cc(C)n(CCNCc2cc(-c3ccccc3)c[nH]c2=O)n1` the figure was less than 4.00. With `CC(C)C1CN(c2cccc(C#N)n2)CCCN1CC1CC1` (configuration not stated) the figure was less than 4.00; with `Cc1cnn(CCNCc2csc(-c3ccsc3)n2)c1`, less than 4.00.

Turning to `CCc1nccn1-c1cccc(C2CCCN2)n1` (configuration not stated), the pIC50 is less than 4.00. The value for `O=C(NCc1nn(-c2ccccc2)c2c1CCC2)NCC1COCCO1` (configuration not stated) was less than 4.00. With `N#Cc1cccnc1N1CCCN(C(=O)CCn2cccn2)CC1` the figure was less than 4.00.

Consider `O=C(NCc1ccccn1)[C@H]1COC[C@H]2CN(C3CCCC3)C[C@H]21`, for which the pIC50 is less than 4.00. With `Nc1cccc(-c2cccc3ccnn23)n1` the figure was less than 4.00; with `N#Cc1c(C2CC2)cc(-c2ccc(O)cc2)nc1N`, less than 4.00; with `CNC(=O)c1cc(C)ccc1NCc1cn2cc(C)ccc2n1`, less than 4.00. As to `CN(Cc1noc(C2CC2)n1)C1CCN(Cc2ccccc2C#N)C1` (configuration not stated), the pIC50 was less than 4.00. The value for `CC(=O)N1CCC(CCc2ccnc(NC(=O)c3ccccn3)c2)CC1` was less than 4.00.

For `CCSCCN1CCCN(S(C)(=O)=O)CC1`, the pIC50 was less than 4.00. With `COc1c(C2CCCN2Cc2noc(C)n2)c(C)nn1C` (configuration not stated) the figure was less than 4.00; with `CC(C)=CCN1CCc2onc(-c3ccc(F)c(F)c3)c2C1`, less than 4.00; with `Cc1cc(C)n(-c2cncc(NCCNC(=O)C(C)C)n2)n1`, less than 4.00. For `CNC(=O)c1cc2c(nc1NCC(C)C)CCN(S(=O)(=O)C1CC1)CC2`, the pIC50 was less than 4.00. `CCc1ncc2c(n1)CN(C(C)C(=O)Nc1ccc(Cl)cn1)CC2` (configuration not stated): the pIC50 is less than 4.00.

On to `Cc1sc2c(C3CCCNC3)nc(Nc3cccc(F)c3)n2c1C` (configuration not stated), for which the pIC50 is less than 4.00. The value for `COc1ccc2cc(CN(C)CCc3cn[nH]c3)c(=O)[nH]c2c1` was less than 4.00; that for `O=C(N1CCCC(n2cncn2)C1)C1(c2ccc(Cl)cc2)CCC1` (configuration not stated) was less than 4.00.
